Patent publication US20250332442A1, “ORAL HYGIENE DEVICE AND SYSETM, AND USE METHOD” (CHANGSHA […] IN[…]., LTD., priority 2023, published 2025)

Columns and labels:
Assay type in all cases: cell-based
[1] = test system: Enterococcus faecalis ATCC2921; assay: photodynamic sterilization experiment with root canal light guide needle device; conditions: red-light beam 630 nm, irradiation 30 s, tip of root canal light guide needle
Description: The photodynamic sterilization experiment on Enterococcus faecalis ATCC2921 is carried out using the device provided by the present disclosure and the photosensitizer toluidine blue O, and a red-light beam with a wavelength of 630 nm is selected to irradiate for 30 s.

Porphyromonas gingivalis [2] = assay: photodynamic sterilization with pure flat light guide needle device (Embodiment 8); conditions: red light beam 630 nm, irradiation 30 s, tail end of pure flat light guide needle
Excerpt: The device of Embodiment 8 and photosensitizer toluidine blue O are used in cooperation to carry out photodynamic sterilization of Porphyromonas gingivalis, and a red light beam with a wavelength of 630 nm is selected to irradiate for 30 s.

[3] = test system: Actinobacillus actinomycetemcomitans; assay: photodynamic sterilization with periodontal light guide needle device (Embodiment 4); conditions: red light beam 630 nm, irradiation 30 s, tip of periodontal light guide needle
Excerpt: The device of Embodiment 4 and photosensitizer toluidine blue O are used in cooperation to carry out photodynamic sterilization of Actinobacillus actinomycetemcomitans, and a red light beam with a wavelength of 630 nm is selected to irradiate for 30 s.

Enterococcus faecalis = assay: photodynamic sterilization experiment with constant-current source device (Embodiment 12); conditions: red light 630 nm and blue light 430 nm, irradiation 30 seconds, device of Embodiment 12
Excerpt: (§1) The device of Embodiment 12 and photosensitizer toluidine blue O are used in cooperation to carry out the photodynamic sterilization experiment on Porphyromonas gingivalis and Enterococcus faecalis. A red light beam with a wavelength of 630 nm and a blue light beam with a wavelength of 430 nm are used to irradiate for 30 seconds.

Porphyromonas gingivalis [4] = assay: as above; conditions: red light 630 nm and blue light 430 nm, irradiation 30 seconds, device of Embodiment 12
Excerpt: as §1

Measured: sterilization efficiency

Cc1cc2nc3ccc(=[N+](C)C)cc-3sc2cc1N [toluidine blue O]
99%: [1] | Porphyromonas gingivalis [2] | [3] | Enterococcus faecalis | Porphyromonas gingivalis [4]
